Results: ChEMBL document CHEMBL4680289, “10-(4-Phenylpiperazine-1-carbonyl)acridin-9(10H)-ones and related compounds: Synthesis, antiproliferative activity and inhibition of tubulin polymerization” (Bioorg Med Chem Lett, 2021)
Active and inactive are the calls of the source. The calls are words filed in the database; no cut-off is given here.

Key:
[1] = test system: K562; assay: Induction of apoptosis in human K562 cells measured after 48 hrs by Annexin V-FITC/7-AAD staining based flow cytometric analysis; type: functional, cell-based; details: dose 0.01-3 µmol/L
[2] = test system: K562; assay: Induction of apoptosis in human K562 cells assessed as viable cells at 0.1 micromol/L measured after 48 hrs by Annexin V-FITC/7-AAD staining based flow cytometric analysis (reference value: 92.85 %); type: functional; details: K562, 48 h, dose 0.1 µmol/L, read-out: Activity
[3] = test system: K562; assay: Induction of apoptosis in human K562 cells assessed as viable cells at 1 micromol/L measured after 48 hrs by Annexin V-FITC/7-AAD staining based flow cytometric analysis (reference value: 92.85 %); type: functional; details: K562, 48 h, dose 1 µmol/L, read-out: Activity
[4] = test system: K562; assay: Induction of apoptosis in human K562 cells assessed as viable cells at 0.1 uM measured after 12 hrs by Annexin V-FITC/7-AAD staining based flow cytometric analysis relative to control; type: functional; details: read-out: Activity
[5] = test system: K562; assay: Induction of apoptosis in human K562 cells assessed as viable cells at 0.03 micromol/L measured after 48 hrs by Annexin V-FITC/7-AAD staining based flow cytometric analysis (reference value: 92.85 %); type: functional; details: K562, 48 h, dose 0.03 µmol/L, read-out: Activity
[6] = test system: K562; assay: Induction of apoptosis in human K562 cells assessed as early apoptotic cells at 0.1 uM measured after 6 hrs by Annexin V-FITC/7-AAD staining based flow cytometric analysis relative to control; type: functional
[7] = test system: K562; assay: Induction of apoptosis in human K562 cells assessed as early apoptotic cells at 0.1 uM measured after 24 hrs by Annexin V-FITC/7-AAD staining based flow cytometric analysis relative to control; type: functional
[8] = test system: K562; assay: Induction of apoptosis in human K562 cells assessed as viable cells at 0.01 micromol/L measured after 48 hrs by Annexin V-FITC/7-AAD staining based flow cytometric analysis (reference value: 92.85 %); type: functional; details: K562, 48 h, dose 0.01 µmol/L, read-out: Activity
[9] = target: Tubulin beta (Homo sapiens) (UniProt P68371+Q9H4B7+Q13509+P04350+Q3ZCM7+P07437+Q13885+Q9BVA1+Q9BUF5+A6NNZ2); assay: Inhibition of N,N'-Ethylenebis(iodoacetamide) binding to beta-tubulin colchicine binding site in human K562 cells assessed as reduction in EBI/beta-tubulin adduct formation at 1 to 10 uM preincubated for 2.5 hrs followed by EBI addition and measured after 1.5 hrs by Western blot analysis; type: cell-based; details: dose 1-10 µM, time 4.0 hrs
[10] = test system: K562; assay: Induction of apoptosis in human K562 cells assessed as early apoptotic cells at 0.01 micromol/L measured after 48 hrs by Annexin V-FITC/7-AAD staining based flow cytometric analysis (reference value: 4.2 %); type: functional; details: dose 0.01 µmol/L, at 0.01 µM
[11] = test system: K562; assay: Induction of apoptosis in human K562 cells assessed as late apoptotic cells at 0.1 uM measured after 72 hrs by Annexin V-FITC/7-AAD staining based flow cytometric analysis relative to control; type: functional
[12] = test system: K562; assay: Induction of apoptosis in human K562 cells assessed as early apoptotic cells at 0.1 uM measured after 12 hrs by Annexin V-FITC/7-AAD staining based flow cytometric analysis relative to control; type: functional
[13] = test system: K562; assay: Induction of apoptosis in human K562 cells assessed as early apoptotic cells at 1 micromol/L measured after 48 hrs by Annexin V-FITC/7-AAD staining based flow cytometric analysis (reference value: 4.2 %); type: functional; details: dose 1 µmol/L, at 1 µM
[14] = test system: K562; assay: Induction of apoptosis in human K562 cells assessed as early apoptotic cells at 0.03 micromol/L measured after 48 hrs by Annexin V-FITC/7-AAD staining based flow cytometric analysis (reference value: 4.2 %); type: functional; details: dose 0.03 µmol/L, at 0.03 µM
[15] = test system: K562; assay: Cell cycle arrest in human K562 cells assessed as increase in cell accumulation at G2/M phase at < 30 nM measured after 18 hrs by propidium iodide/RNase FACSCalibur staining based flow cytometry; type: functional; details: dose nM <30, time 18.0 hrs
[16] = test system: K562; assay: Induction of apoptosis in human K562 cells assessed as late apoptotic cells at 0.03 micromol/L measured after 48 hrs by Annexin V-FITC/7-AAD staining based flow cytometric analysis (reference value: 2.49 %); type: functional; details: dose 0.03 µmol/L, at 0.03 µM
[17] = test system: K562; assay: Induction of apoptosis in human K562 cells assessed as necrotic cells at 0.3 micromol/L measured after 48 hrs by Annexin V-FITC/7-AAD staining based flow cytometric analysis (reference value: 0.46 %); type: functional; details: dose 0.3 µmol/L, at 0.3 µM
[18] = test system: K562; assay: Induction of apoptosis in human K562 cells assessed as late apoptotic cells at 0.01 micromol/L measured after 48 hrs by Annexin V-FITC/7-AAD staining based flow cytometric analysis (reference value: 2.49 %); type: functional; details: dose 0.01 µmol/L, at 0.01 µM
[19] = test system: K562; assay: Induction of apoptosis in human K562 cells assessed as necrotic cells at 0.01 micromol/L measured after 48 hrs by Annexin V-FITC/7-AAD staining based flow cytometric analysis (reference value: 0.46 %); type: functional; details: dose 0.01 µmol/L, at 0.01 µM
[20] = test system: K562; assay: Induction of apoptosis in human K562 cells at 30 nM measured after 48 hrs by Annexin V-FITC/7-AAD staining based flow cytometric analysis; type: functional, cell-based
[21] = test system: K562; assay: Induction of apoptosis in human K562 cells assessed as necrotic cells at 0.1 uM measured after 72 hrs by Annexin V-FITC/7-AAD staining based flow cytometric analysis relative to control; type: functional
[22] = test system: K562; assay: Induction of apoptosis in human K562 cells assessed as late apoptotic cells at 0.3 micromol/L measured after 48 hrs by Annexin V-FITC/7-AAD staining based flow cytometric analysis (reference value: 2.49 %); type: functional; details: dose 0.3 µmol/L, at 0.3 µM
[23] = test system: K562; assay: Induction of apoptosis in human K562 cells assessed as viable cells at 0.3 micromol/L measured after 48 hrs by Annexin V-FITC/7-AAD staining based flow cytometric analysis (reference value: 92.85 %); type: functional; details: K562, 48 h, dose 0.3 µmol/L, read-out: Activity
[24] = test system: K562; assay: Induction of apoptosis in human K562 cells assessed as late apoptotic cells at 0.1 uM measured after 6 hrs by Annexin V-FITC/7-AAD staining based flow cytometric analysis relative to control; type: functional
[25] = test system: K562; assay: Induction of apoptosis in human K562 cells assessed as necrotic cells at 0.1 uM measured after 24 hrs by Annexin V-FITC/7-AAD staining based flow cytometric analysis relative to control; type: functional
[26] = test system: K562; assay: Induction of apoptosis in human K562 cells assessed as viable cells at 0.1 uM measured after 72 hrs by Annexin V-FITC/7-AAD staining based flow cytometric analysis relative to control; type: functional; details: read-out: Activity
[27] = test system: K562; assay: Induction of apoptosis in human K562 cells assessed as late apoptotic cells at 0.1 uM measured after 12 hrs by Annexin V-FITC/7-AAD staining based flow cytometric analysis relative to control; type: functional
[28] = test system: K562; assay: Induction of apoptosis in human K562 cells assessed as late apoptotic cells at 0.1 micromol/L measured after 48 hrs by Annexin V-FITC/7-AAD staining based flow cytometric analysis (reference value: 2.49 %); type: functional; details: dose 0.1 µmol/L, at 0.1 µM
[29] = test system: K562; assay: Induction of apoptosis in human K562 cells assessed as necrotic cells at 0.1 uM measured after 12 hrs by Annexin V-FITC/7-AAD staining based flow cytometric analysis relative to control; type: functional

`COc1cc(OC)cc(N2CCN(C(=O)n3c4ccccc4c(=O)c4ccccc43)CC2)c1` was tested. Which Activity [1] did it give?
Its Activity is “Dose-dependent effect”.

And the viability at 0.1 µM [2]?
Its viability at 0.1 µM is 41.5%.

And the viability at 1 µM [3]?
Its viability at 1 µM is 41%.

And the viability at 0.1 µM [4]?
Its viability at 0.1 µM is 87.8%.

And the viability at 0.03 µM [5]?
Its viability at 0.03 µM is 52.2%.

What about the Activity [6] of the same compound?
The Activity was 4.84%.

What about the Activity [7] of the same compound?
Its Activity is 26.44%.

And the viability at 0.01 µM [8]?
The viability at 0.01 µM was 88.6%.

What about the inhibition [9] of the same compound?
Its inhibition is “Active”.

And the Activity [10]?
Its Activity is 6.24%.

What about the Activity [11] of the same compound?
Its Activity is 65.69%.

And the Activity [12]?
The Activity was 9.02%.

And the Activity [13]?
The Activity was 27.4%.

What about the Activity [14] of the same compound?
The Activity was 21.52%.

And the Activity [15]?
The Activity was “Active”.

And the Activity [16]?
The Activity was 25.72%.

And the Activity [17]?
Its Activity is 0.35%.

What about the Activity [18] of the same compound?
The Activity was 4.85%.

And the Activity [19]?
Its Activity is 0.27%.

And the Activity [20]?
The Activity was “Active”.

And the Activity [21]?
Its Activity is 4.54%.

And the Activity [22]?
The Activity was 32.32%.

And the viability at 0.3 µM [23]?
Its viability at 0.3 µM is 42.6%.

What about the Activity [24] of the same compound?
Its Activity is 3.3%.

And the Activity [25]?
The Activity was 0.23%.

And the viability at 0.1 µM [26]?
Its viability at 0.1 µM is 18.2%.

And the Activity [27]?
Its Activity is 2.86%.

What about the Activity [28] of the same compound?
Its Activity is 22.22%.

And the Activity [29]?
The Activity was 0.29%.
